A word on the melting point: it is the temperature, or range, at which the solid turns liquid.

The values that follow come from a melting point compilation (Tetko et al.).

`CCO[C@H]1OC(C(N)=O)=CC[C@H]1Br`: the melting point was 141 to 142 °C.
`CCOC(=O)Nc1cccc([N+](=O)[O-])c1[N+](=O)[O-]` gave a melting point of 102 to 103 °C.
Under `Nc1c(Cl)cc([N+](=O)[O-])cc1Br` stands 175 °C.
On to `Cn1c(=O)c(C2=NNC(=O)C2=NNc2cccnc2)c(O)c2ccccc21`, for which the melting point worked out at 230 °C.
Regarding `Nc1ncnc2c1ncn2C1CC(O)C(CO)O1` (stereo unspecified), the melting point fell in the range of 185 to 187 °C.
As to `Cc1n[nH]c(SCc2ccc(Cl)cc2)n1`, the melting point was 151 to 153 °C.
On to `Cc1nn(Cc2ccccc2)c(N)c1C#N`, for which the melting point was 78 °C.
As to `Ic1cccc2nsnc12`, the melting point fell in the range of 96 to 97 °C.
In the case of `NNc1ccc(Br)cc1`, the melting point was 108 °C.
Compound `COc1cc(CC#N)c(OC)cc1CC#N` gave a melting point of 198 to 200 °C.
In turn, `CSc1nc(N)nc(C23CC4CC(CC(C4)C2)C3)n1` came in with a melting point of 208 to 210 °C.
As for `Cc1noc(-c2ccccc2)c1CBr`, the melting point was 72 °C.
In turn, `CCCCCCCCCCCCCCCCCCCCCC1CCCC1` came in with a melting point of 42 °C.
`COc1ccc(N=C=S)cc1OC`: the melting point came out at 48 °C.
Regarding `COC(=O)C1=C(C)NC(=O)C1CC(=O)O` (stereo unspecified), the melting point lay in the range of 160 to 162 °C.
For `CCCCCCCCC=CCCCCCCCC(=O)OCC` the value was -32 °C.
For `Nc1nc(NC2CC2)c2ncn(C3C=CC(CO)C3)c2n1` (stereo unspecified) the value was 165 °C; for `COc1ccc(N/C=C2\C(=O)C3(C)CCC2C3(C)C)cc1` (stereo unspecified), 171 °C; for `COP1(=S)OCc2ccccc2O1` (stereo unspecified), 55 °C.
As to `CCCCCCCCC=CCCCCCCCC(=O)OCC(COC(=O)CCCCCCCC=CCCCCCCCC)OC(=O)CCCCCCCC=CCCCCCCCC` (stereo unspecified), the melting point is -32 °C.
Compound `OCCC1CCNCC1` showed a melting point of 132 °C.
In turn, `Cc1ccc(CC=O)cc1` yielded a melting point of 40 °C.
For `CC1(c2ccc(Oc3ccccc3)cc2)OC(=O)N(Nc2ccccc2)C1=O` (stereo unspecified) the value was 142 °C; for `CC(=O)CCc1cc2c(c([N+](=O)[O-])c1)CCC(C)N2C(=O)c1ccc([N+](=O)[O-])cc1` (stereo unspecified), 115 °C.
Under `CC1CCCC1C` (stereo unspecified) stands -54 °C.
Regarding `N#Cc1ncccc1Cl`, the melting point was 84 °C.
In the case of `CC(=O)/C(=N\Nc1cccc(C(F)(F)F)c1)C(=O)C(F)(F)F`, the melting point is 85 to 87 °C.
For `CCCCCOc1ccc(/N=N/c2ccc(CCCC)cc2)cc1Cl` the value was 41.5 °C.
The compound `Nc1c(Br)cc(Cl)cc1Br` displayed a melting point of 93 to 95 °C.
Take `COC1(OC)CC=CCC(OC)(OC)CC=CC1`: the melting point was in the range of 201 to 202 °C.
For the compound `COC(=O)C1(S(=O)(=O)c2ccccc2)CCC1`, the melting point amounted to 108 °C.
Regarding `NCc1csc2ccc(Br)cc12`, the melting point lay within 37 to 38 °C.
Under `COc1ccc(C(=O)Oc2ccc(/C=C/C(=O)c3ccccc3)cc2)cc1` stands 156 °C; under `COc1ncc(F)c2nc(S(=O)(=O)Nc3c(F)cccc3F)nn12`, 194 °C.
Take `CC(C)(C)C(O)C(=Cc1ccc(Cl)cc1Cl)n1cncn1` (stereo unspecified): the melting point lay in the range of 148 to 149 °C.
In the case of `N#C/C(=C/c1ccc(Cl)cc1)c1nc(-c2ccccc2)cs1`, the melting point was 103 to 105 °C.
As for `N=C(N)N(c1ccccc1)c1ccccc1`, the melting point was found to be 150 °C.
In turn, `CCOC(=O)c1cc(-c2cccs2)nn1C` came in with a melting point of 72 to 73 °C.
For the compound `Cc1nn(-c2ccccc2)c(C)c1C#N`, the melting point was 85 to 86 °C.
In the case of `O=C1c2ccccc2CC2CCCCN12` (stereo unspecified), the melting point was found to be 97 °C.
For the compound `COc1ccc(-c2onc(C(=O)c3ccc(C)cc3)c2S(=O)(=O)c2ccccc2)cc1`, the melting point worked out at 170 °C.
`COc1ccc(Oc2ccc([N+](=O)[O-])cc2C(=O)Cl)cc1` registered a melting point of 91 to 93 °C.
As to `CCCCNC(=O)NNC(=O)OCC`, the melting point was found to be 97 °C.
`O=Cc1cccc(C(F)(F)F)c1O`: the melting point was found to be 57 °C.
For `C1CCC(CCC2CCCCC2)CC1` the value was 11.5 °C.
`Nc1nc(Cl)c2ncn(C3OC(CO)C(O)C3O)c2n1` (stereo unspecified): the melting point lay within 166 to 167 °C.
Under `COc1nc(Cl)nc(OC)n1` stands 77 °C; under `COC1(OC)CC[C@]2(C)[C@H]3CC[C@]4(C)CCC[C@@]4(O)[C@@H]3CC[C@@]2(C)C1`, 146 to 147 °C.
For `CCCCCCCCCCCC(=O)Cl` the value was -17 °C; for `COc1ccc(CCN2CCc3c([nH]c4ccccc34)C2=O)cc1OC`, 206 to 207 °C.
For the compound `Cc1c(C(=O)CBr)sc2ccc(Cl)cc12`, the melting point fell in the range of 154 to 156 °C.
In turn, `ClCc1ccc(Cl)c(Cl)c1` displayed a melting point of 37.5 °C.
Compound `O=C1OC(c2ccccc2)=NC1=Cc1ccc(Cl)cc1Cl` had a melting point of 180 °C.
The compound `CC1=NN(c2ccc([N+](=O)[O-])cc2)C(=O)C1` gave a melting point of 220 to 225 °C.
`Nc1cc(F)c(Cl)cc1N` displayed a melting point of 110 to 112 °C.
Consider `Nc1ccccc1-n1ccnc1`, for which the melting point fell in the range of 106 to 107 °C.
With `CCc1c(C(=O)O)c(=O)cnn1-c1ccc(Cl)cc1`, the melting point worked out at 269 °C.
For the compound `O=C(Nc1ccc(Cl)cc1)C(Cl)=C(Cl)Cl`, the melting point turned out to be 146 °C.
Under `Cc1nccc(-c2cccc(S(=O)(=O)Cl)c2)n1` stands 174 to 175 °C.
For the compound `CCCCCCCCCCCC=O`, the melting point worked out at 44.5 °C.
In turn, `O=C1CCCCCC1c1ccccc1` (stereo unspecified) came in with a melting point of 21 to 23 °C.
For the compound `O=C(Nc1cccc2cc(OC(=O)c3ccccc3)ccc12)c1ccccc1`, the melting point lay within 222 to 223 °C.
Consider `CCC(c1ccc(O)c(C)c1)C(CC)c1ccc(O)c(C)c1` (stereo unspecified), for which the melting point was 145 °C.
For `COc1cc(CCC(=O)O)cc(OC)c1OC` the value was 104 °C; for `C[C@@]12C=CC(=O)N1[C@@H](c1ccccc1)CO2`, 88 to 92 °C.
With `Cc1ccc(C2(c3ccc(C)o3)C(=O)Nc3ccccc32)o1`, the melting point is 216 °C.
For `CC1COC(Cn2cncn2)(c2ccc(Oc3ccc(Cl)cc3)cc2Cl)O1` (stereo unspecified) the value was 76 °C; for `O=C(O)[C@H]1CCCCN1C(=O)OCC1c2ccccc2-c2ccccc21`, 149 to 153 °C.
Compound `CC12CCC(C(=Cc3ccccc3)C1=O)C2(C)C` (stereo unspecified) had a melting point of 97 °C.
For `CC(CO)c1c(O)c(O)c2c(c1O)C(=O)C(O)=C1C(C)(C)CCCC12C` (stereo unspecified) the value was 237 °C.
`CCCCc1c(C)nc(NCC)nc1O`: the melting point worked out at 160 °C.
`CCOc1ccc(C(C)O)cc1` (stereo unspecified) gave a melting point of 47 °C.
In turn, `O=Cc1cc([N+](=O)[O-])ccc1F` showed a melting point of 58 °C.
Consider `Cc1c(CO)cnn1-c1ccc(F)cc1`, for which the melting point lay within 120 to 121 °C.
For `Clc1nnnn1-c1ccccc1` the value was 123 °C; for `CN(C(=S)Cl)c1ccc(Cl)cc1`, 76 to 78 °C; for `CC(NC(=O)OC(C)(C)C)C(=O)N1CCCC1C(=O)OCc1ccccc1` (stereo unspecified), 68 to 70 °C.
In turn, `CCCCCCCCCCC#N` had a melting point of -6 °C.
As to `CCCCOCCOCCO`, the melting point was -68 °C.
Compound `CN(C)C1=NC(=O)C(c2ccccc2)O1` (stereo unspecified) showed a melting point of 133 °C.
The compound `OCc1ccc(Cl)nc1` showed a melting point of 48 °C.
The compound `COc1c(OC)c(OC(C)=O)c2ccccc2c1OC(C)=O` gave a melting point of 138 °C.
With `Cn1cnc(N)c2ncnc1-2`, the melting point was 300 °C.
With `CC(OCC(=O)c1ccccc1)=C(C#N)c1ccccc1`, the melting point worked out at 111 °C.
Consider `O=C(NC(Cc1ccccc1)C(=O)O)OCc1ccccc1[N+](=O)[O-]` (stereo unspecified), for which the melting point fell in the range of 140 to 142 °C.
Turning to `CC(=O)C=P(c1ccccc1)(c1ccccc1)c1ccccc1`, the melting point is 204 °C.
The compound `CC(C)C(N)=NO` gave a melting point of 60 to 61 °C.
With `CC(C)C1CCCCC1=O` (stereo unspecified), the melting point worked out at 72.5 °C.
Turning to `CN(C)P(=O)(N(C)C)N(C)C`, the melting point worked out at 7.2 °C.
`COC1=CC(=O)CC(C)C12Oc1c(Cl)c(OC)cc(OC)c1C2=O` (stereo unspecified) came in with a melting point of 219 °C.
For `c1ccc(N=NNc2ccccc2)cc1`, the melting point was found to be 98 °C.
As for `CC(C)n1nnc2cc(C(=O)Cl)ccc21`, the melting point fell in the range of 140 to 143 °C.
Compound `COc1c(F)cc(O)cc1F` displayed a melting point of 69 °C.
For `CCC(C)(C)C(C)(C)O` the value was -1 °C.
In the case of `NCC(=O)NO`, the melting point is 156 °C.
Under `O=S1(=O)OCC2C(CO1)C1(Cl)C(Cl)=C(Cl)C2(Cl)C1(Cl)Cl` (stereo unspecified) stands 182 °C.
Compound `O=C(c1cccc(F)c1)c1cccc(F)c1` returned a melting point of 59 °C.
With `N#Cc1c(O)nsc1Nc1ccccc1Cl`, the melting point is 100 °C.
In turn, `CCOc1cc(C)ccc1O` came in with a melting point of 30.5 °C.
Under `Cn1ncc(C=O)c1N` stands 161 to 163 °C.
The compound `Cc1nn(-c2ccccc2)c(C)c1C(=O)O` came in with a melting point of 199 to 201 °C.
Take `CCOC(=O)c1nn(-c2ccc(C)cc2)c(C)c1C(=O)c1noc(-c2cccc3ccccc23)c1S(=O)(=O)c1ccccc1`: the melting point is 173 °C.
For `Cc1cc(C)c(CC(=NOCc2ccccc2)c2cc3cc(Br)ccc3o2)c(C)c1`, the melting point was in the range of 126 to 127 °C.
For the compound `COC(=O)C1Cc2ccccc2N1C(=O)OC(C)(C)C` (stereo unspecified), the melting point was in the range of 73 to 75 °C.
In turn, `COc1ccc2c(c1)CC2C#N` (stereo unspecified) yielded a melting point of 48 to 56 °C.
As to `Cc1ccccc1OCC(=O)O`, the melting point lay in the range of 155 to 157 °C.
Turning to `O=C(O)c1ccc(OC2CCOCC2)cc1`, the melting point fell in the range of 185 to 186 °C.
Consider `Cc1csc(-c2cn(C(C)C)c(=O)n(CC(=O)NN)c2=O)n1`, for which the melting point was 260 to 263 °C.
Under `N#C/C(=C\c1ccc(Cl)cc1Cl)c1nc2ccccc2[nH]1` stands 249 °C; under `COc1ccc(Cl)cc1C(=O)O`, 99 °C.
As to `CC(=O)c1ccc(S(C)(=O)=O)cc1`, the melting point was in the range of 129 to 131 °C.
